The values below come from patent US10435376B2, “Derivatives of 1H-imidazole-4,5-dicarboxamide and use thereof in preparation of anticoccidial drugs” (GUANGZHOU INSIGHTER BIOTECHNOLOGY CO., LTD., priority 2015, dated 2019).

Holding throughout (format): in vivo
The subject of one assay is Eimeria tenella. Description: Inhibitory effects of the derivatives on Eimeria tenella of chicken (60 ppm in feed). The conditions noted are these: for responders at 60 ppm, 60 µg/mL / response vs control in vivo at 60 ppm, 60 µg/mL: Eimeria tenella, 168 h; for responders at 60 ppm, 60 µg/mL: read-out: Survival rate (%); for response vs control in vivo at 60 ppm, 60 µg/mL: relative to group 1 (not infected, not treated), read-out: Relative weight gain (%); for Score (bloody stool score): 5 days after inoculation; for anticoccidial activity in view of survival rate, bloody stool score and relative weight gain: 60 ppm, E. tenella. The source says: (§1) One-day-old yellow-feather fast-growing broilers were raised in a coccidia-free environment, and divided into groups for trial at the age of 18 days when no coccidian oocysts were detected by microscopy in their faeceas. Weak or overweight broilers were removed, and healthy broilers were divided into 30 groups with 50 broilers in each group and weight difference between each two broilers was below 20 g. Groups 1 and 2 were respectively a control group that the broilers were neither infected nor treated, and a control group that the broilers were infected but not treated. Groups 3 to 30 were respectively administrated with different derivatives. The broilers were given ad libitum access to feed and water when the feed was added with different medicines according to Table 1 at the day the broilers were divided. 24 Hours after the trial began, 250,000 sporulated Eimeria tenella oocysts were inoculated via an oral gavage into the crop of every broiler in each group except group 1. Bloody stool score was measured 5 days after the inoculation and the trial was ended 7 days after the inoculation. Relative weight gain (%), survival rate (%) and the bloody stool score were evaluated.
(§2) Bloody stool score: 0, no bloody stool was observed; 1, bloody stool below 25%; 2, 25 to 50% of bloody stool; 3, 50 to 75% of bloody stool; and 4, bloody stool over 75%.
(§3) Relative weight gain (%): The broilers were weighed at the beginning and the end of the trial to calculate the average weight gain and relative weigh gain. Relative weight gain=(average weight gain of each group/average weight gain of group 1)×100%.
(§4) Deaths of the broilers: Necropsy was performed and the amount of dead broilers in each group was recorded to calculate the survival rate. Survival rate=(total amount of the broilers in each group−amount of deaths caused by coccidial infection)/total amount of the broilers in each group×100%.

A further assay concerns Eimeria necatrix. Description: Inhibitory effects of the derivatives on Eimeria necatrix of chicken. To be noted: for responders at 60 ppm, 60 µg/mL / response vs control in vivo at 60 ppm, 60 µg/mL: Eimeria necatrix, 168 h; for responders at 60 ppm, 60 µg/mL: read-out: Survival rate (%); for response vs control in vivo at 60 ppm, 60 µg/mL: feed or water, read-out: Relative weight gain (%); for response vs control in vivo at 60 ppm, 60 µg/mL / Score (bloody stool score): broilers, 60 ppm in feed, 100,000 E. necatrix oocysts; for Score (bloody stool score): 5 days after inoculation; for anticoccidial activity in view of survival rate, bloody stool score and relative weight gain: 60 ppm, E. necatrix. As to the method: as §2, §3, §4
as §1, with “into 10” for “into 30”, “to 10” for “to 30”, “Table 4” for “Table 1”, “began, 100,000” for “began, 250,000”, “Eimeria necatrix” for “Eimeria tenella”, “were evaluated (according to embodiment 2).” for “were evaluated.”

The subject of another assay is Eimeria acervulina. Briefly: Inhibitory effects of the derivatives on Eimeria acervulina of chicken. To be noted: for responders at 60 ppm, 60 µg/mL / response vs control in vivo at 60 ppm, 60 µg/mL: Eimeria acervulina, 168 h; for responders at 60 ppm, 60 µg/mL: read-out: Survival rate (%); for response vs control in vivo at 60 ppm, 60 µg/mL: feed or water, read-out: Relative weight gain (%); for anticoccidial activity in view of survival rate, relative weight gain and feed conversion ratio: 60 ppm, E. acervulina. As to the method:
as §3, §4
One-day-old yellow-feather fast-growing broilers were raised in a coccidia-free environment, and divided into groups for trial at the age of 18 days when no coccidian oocysts were detected by microscopy in their faeceas. Weak or overweight broilers were removed, and healthy broilers were divided into 10 groups with 50 broilers in each group and weight difference between each two broilers was below 20 g. Groups 1 and 2 were respectively a control group that the broilers were neither infected nor treated, and a control group that the broilers were infected but not treated. Groups 3 to 10 were respectively administrated with different derivatives. The broilers were given ad libitum access to feed and water when the feed was added with different medicines according to Table 3 at the day the broilers were divided. 24 Hours after the trial began, 400,000 sporulated Eimeria acervulina oocysts were inoculated via an oral gavage into the crop of every broiler in each group except group 1. The trial was ended 7 days after the inoculation. Relative weight gain (%), survival rate (%) and feed conversion ratio were evaluated.

[1] abbreviates: broilers, 60 ppm in feed, 250,000 E. tenella oocysts, 7 days after inoculation.
[2] abbreviates: broilers, 60 ppm in feed, 250,000 E. tenella oocysts.
[3] abbreviates: broilers, 60 ppm in feed, 400,000 E. acervulina oocysts.
Where [4] appears, read: broilers, 60 ppm in feed, 400,000 E. acervulina oocysts, 7 days after inoculation.

Where two headings read alike, the source gives them in different places.

Consider `CN1CCN(C(=O)c2nc[nH]c2C(=O)N2CCN(C)CC2)CC1` [IST15008, (1H-imidazole-4,5-diyl) bis((4-methylpiperazin-1-yl)methanone)], for which the responders at 60 ppm, 60 µg/mL in the assay on Eimeria tenella (setting [1]) came to 100%. For the same molecule, in the assay on Eimeria tenella (setting [2]), the response vs control in vivo at 60 ppm, 60 µg/mL is 89.7% and the “Score (bloody stool score)” value is given as 2 (25 to 50% of bloody stool). In the assay with Eimeria necatrix, the responders at 60 ppm, 60 µg/mL is 100%; the response vs control in vivo at 60 ppm, 60 µg/mL amounted to 81.2%; the “Score (bloody stool score)” value is 3 (50 to 75% of bloody stool).
Consider `NC(=O)c1ncn(Cc2cc([N+](=O)[O-])cc([N+](=O)[O-])c2)c1C(N)=O` [IST15056, 1-(3,5-dinitrobenzyl)-1H-imidazole-4,5-dicarboxamide], for which the responders at 60 ppm, 60 µg/mL in the assay on Eimeria tenella was 100%. Also, in the assay on Eimeria tenella (setting [2]), the response vs control in vivo at 60 ppm, 60 µg/mL was found to be 81.3% and the “Score (bloody stool score)” value is on record as 3 (50 to 75% of bloody stool). Further, in the assay with Eimeria acervulina, the responders at 60 ppm, 60 µg/mL came to 100%. Moreover, in the assay on Eimeria acervulina (setting [3]), the response vs control in vivo at 60 ppm, 60 µg/mL stood at 72.5% and the Feed conversion ratio stood at 2.405.
For the molecule `Cc1nc(=O)c2[nH]cnc2c(=O)[nH]1` [IST15016, 6-methylimidazo[4,5-e][1,3]diazepine-4,8(1H,5H)-dione], the responders at 60 ppm, 60 µg/mL in the assay on Eimeria tenella (setting [1]) is 100%. Further, in the assay on Eimeria tenella (setting [2]), the response vs control in vivo at 60 ppm, 60 µg/mL was determined as 74.8% and the “Score (bloody stool score)” value is recorded as 2 (25 to 50% of bloody stool). For the same molecule, in the assay on Eimeria acervulina (setting [4]), the responders at 60 ppm, 60 µg/mL turned out to be 100%. Further, in the assay with Eimeria acervulina (setting [3]), the response vs control in vivo at 60 ppm, 60 µg/mL was 75.6% and the Feed conversion ratio was determined as 2.524.
With `CCCn1cnc(C(N)=O)c1C(N)=O` [IST15038, 1-propyl-1H-imidazole-4,5-dicarboxamide], the responders at 60 ppm, 60 µg/mL in the assay on Eimeria tenella (setting [1]), in the assay on Eimeria acervulina (setting [4]) and in the assay on Eimeria necatrix was 100% throughout. The response vs control in vivo at 60 ppm, 60 µg/mL in the assay on Eimeria tenella (setting [2]) came to 82.1%; with Eimeria acervulina (setting [3]), 73.8%; in the assay with Eimeria necatrix it was 79.5%. The “Score (bloody stool score)” value is given as 3 (50 to 75% of bloody stool) in the assay on Eimeria tenella (setting [2]) and 2 (25 to 50% of bloody stool) in the assay with Eimeria necatrix. Besides, the Feed conversion ratio with Eimeria acervulina (setting [3]) is given as 2.135.
As to `NC(=O)c1ncn(Cc2ccccc2F)c1C(N)=O` [IST15043, 1-(2-fluorobenzyl)-1H-imidazole-4,5-dicarboxamide], the “anticoccidial activity in view of survival rate, bloody stool score and relative weight gain” value with Eimeria tenella and in the assay with Eimeria necatrix was “highest anticoccidial activities” in each case. Besides, the responders at 60 ppm, 60 µg/mL in the assay with Eimeria tenella (setting [1]), in the assay with Eimeria acervulina (setting [4]) and in the assay with Eimeria necatrix was 100% throughout. Besides, the response vs control in vivo at 60 ppm, 60 µg/mL in the assay on Eimeria tenella (setting [2]) turned out to be 98.7%; with Eimeria acervulina (setting [3]), 99.4%; in the assay on Eimeria necatrix, 102%. Further, the “Score (bloody stool score)” value in the assay on Eimeria tenella (setting [2]) and with Eimeria necatrix was 0 in each case. Moreover, the “anticoccidial activity in view of survival rate, relative weight gain and feed conversion ratio” value with Eimeria acervulina is on record as “highest anticoccidial activities”. Moreover, the Feed conversion ratio with Eimeria acervulina (setting [3]) worked out at 2.139.
Turning to `NC(=O)c1ncn(Cc2ccc(Cl)cc2)c1C(N)=O` [IST15037, 1-(4-chlorobenzyl)-1H-imidazole-4,5-dicarboxamide], the “anticoccidial activity in view of survival rate, bloody stool score and relative weight gain” value in the assay with Eimeria tenella and in the assay with Eimeria necatrix was “highest anticoccidial activities” in each case. The responders at 60 ppm, 60 µg/mL with Eimeria tenella (setting [1]), with Eimeria acervulina (setting [4]) and in the assay with Eimeria necatrix was 100% throughout. Moreover, the response vs control in vivo at 60 ppm, 60 µg/mL was determined as 99.2% in the assay with Eimeria tenella (setting [2]), 98.5% in the assay with Eimeria acervulina (setting [3]) and 98.9% with Eimeria necatrix. Besides, the “Score (bloody stool score)” value in the assay on Eimeria tenella (setting [2]) and in the assay on Eimeria necatrix was 0 in each case. Also, the “anticoccidial activity in view of survival rate, relative weight gain and feed conversion ratio” value in the assay with Eimeria acervulina is given as “highest anticoccidial activities”. The Feed conversion ratio in the assay on Eimeria acervulina (setting [3]) turned out to be 2.148.
With `CCCCCCn1cnc(C(N)=O)c1C(N)=O` [IST15162, 1-hexyl-1H-imidazole-4,5-dicarboxamide], the responders at 60 ppm, 60 µg/mL in the assay on Eimeria tenella (setting [1]) amounted to 100%. Further, in the assay on Eimeria tenella (setting [2]), the response vs control in vivo at 60 ppm, 60 µg/mL was determined as 81.6% and the “Score (bloody stool score)” value is on record as 3 (50 to 75% of bloody stool).
For `NC(=O)c1ncn(Cc2ccc([N+](=O)[O-])cc2)c1C(N)=O` [IST15045, 1-(4-nitrobenzyl)-1H-imidazole-4,5-dicarboxamide], the “anticoccidial activity in view of survival rate, bloody stool score and relative weight gain” value in the assay with Eimeria tenella and with Eimeria necatrix was “highest anticoccidial activities” throughout. Moreover, the responders at 60 ppm, 60 µg/mL in the assay on Eimeria tenella (setting [1]), with Eimeria acervulina (setting [4]) and in the assay with Eimeria necatrix was 100% in each case. Moreover, the response vs control in vivo at 60 ppm, 60 µg/mL with Eimeria tenella (setting [2]) came out at 104%; in the assay with Eimeria acervulina (setting [3]), 98.7%; in the assay with Eimeria necatrix, 102%. In addition, the “Score (bloody stool score)” value in the assay on Eimeria tenella (setting [2]) and in the assay with Eimeria necatrix was 0 each time. The “anticoccidial activity in view of survival rate, relative weight gain and feed conversion ratio” value in the assay with Eimeria acervulina is “highest anticoccidial activities”. Besides, the Feed conversion ratio in the assay with Eimeria acervulina (setting [3]) worked out at 2.158.
For `NC(=O)c1ncn(Cc2ccc(Oc3ccc(Cl)cc3)cc2)c1C(N)=O` [IST15167, 1-(4-(4-chlorophenoxy)benzyl)-1H-imidazole-4,5-dicarboxamide], the responders at 60 ppm, 60 µg/mL in the assay on Eimeria tenella (setting [1]) and in the assay with Eimeria necatrix was 100% throughout. Moreover, the response vs control in vivo at 60 ppm, 60 µg/mL with Eimeria tenella (setting [2]) is 82.7%; with Eimeria necatrix it was 75.8%. In addition, the “Score (bloody stool score)” value with Eimeria tenella (setting [2]) and in the assay on Eimeria necatrix was 3 (50 to 75% of bloody stool) each time.
Consider `CCCCCn1cnc(C(N)=O)c1C(N)=O` [IST15116, 1-pentyl-1H-imidazole-4,5-dicarboxamide], for which, in the assay on Eimeria tenella (setting [1]), the responders at 60 ppm, 60 µg/mL was 100%. In the assay with Eimeria tenella (setting [2]), the response vs control in vivo at 60 ppm, 60 µg/mL stood at 78.6% and the “Score (bloody stool score)” value is 3 (50 to 75% of bloody stool).
For `NC(=O)c1ncn(Cc2c(Cl)cccc2Cl)c1C(N)=O` [IST15044, 1-(2,6-dichlorobenzyl)-1H-imidazole-4,5-dicarboxamide] the same measures were 100%, 79.8% and 3 (50 to 75% of bloody stool).
`NC(=O)c1ncn(Cc2ccc(Cl)c(Cl)c2)c1C(N)=O` [IST15054, 1-(3,4-dichlorobenzyl)-1H-imidazole-4,5-dicarboxamide]: the responders at 60 ppm, 60 µg/mL with Eimeria tenella (setting [1]) came out at 100%. Further, in the assay on Eimeria tenella (setting [2]), the response vs control in vivo at 60 ppm, 60 µg/mL was determined as 71.4% and the “Score (bloody stool score)” value is reported as 4 (bloody stool over 75%).
